Activity calls are given as the source filed them. The calls are words filed in the database; no cut-off is given here.

Results on 24 compounds are retold here after ChEMBL document CHEMBL5550153, “Semisynthesis and biological evaluation of novel honokiol thioethers against colon cancer cells HCT116 via inhibiting the transcription and expression of YAP protein” (Bioorg Med Chem, 2024).

The test system of one experiment is KYSE-450. The experiment in a line: Antiproliferative activity against human KYSE-450 cells assessed as inhibition of cell growth incubated for 48 hrs by MTT assay. It counts as functional, cell-based. Particulars: KYSE-450, 48 h.
In the next experiment the test system is MGC-803. In words: Antiproliferative activity against human MGC-803 cells assessed as inhibition of cell growth incubated for 48 hrs by MTT assay. It counts as functional, cell-based. The note with it: MGC-803, 48 h.
The test system of experiment [1] is HCT-116. The experiment in a line: Antiproliferative activity against human HCT-116 cells assessed as inhibition of cell growth incubated for 48 hrs by MTT assay. It counts as functional, cell-based. Particulars: HCT-116, 48 h.
Experiment [2] deals with HCT-116. The experiment in a line: Downregulation of YAP protein expression in human HCT-116 cells at 2 to 6 micromol/L measured after 48 hrs by Western blot analysis. Particulars: dose 2-6 µmol/L. It counts as functional, cell-based.
For experiment [3], the system named is HCT-116. The experiment in a line: Induction of cell cycle arrest in human HCT-116 cells assessed as downregulation of CDK4 level at 2 to 6 micromol/L measured after 48 hrs by Western blot analysis. Particulars: dose 2-6 µmol/L. It counts as functional, cell-based.
Experiment [4] relates to HCT-116. In words: Downregulation of TAZ protein expression in human HCT-116 cells at 2 to 6 micromol/L measured after 48 hrs by Western blot analysis. It counts as functional, cell-based. Particulars: dose 2-6 µmol/L.
Experiment [5] deals with HCT-116. The experiment in a line: Antiproliferative activity against human HCT-116 cells assessed as inhibition of cell growth at 2 to 6 micromol/L by MTT assay. It counts as functional, cell-based. The note with it: dose 2-6 µmol/L, time 0-48 hrs, TDE = time-dependent effect.
In experiment [6] the test system is HCT-116. The experiment in a line: Antiproliferative activity against human HCT-116 cells assessed as inhibition of cell growth measured upto 48 hrs by MTT assay. It counts as functional, cell-based. Particulars: dose 2-6 µmol/L.
In experiment [7] the test system is HCT-116. In words: Induction of cell death in human HCT-116 cells at 2 to 6 micromol/L measured after 48 hrs by Annexin V-FITC/PI staining based flow cytometry analysis. It counts as functional. Particulars: dose 2-6 µmol/L.
The test system of experiment [8] is HCT-116. The experiment in a line: Induction of cell cycle arrest in human HCT-116 cells assessed as increase in cells at G1 phase at 2 to 6 micromol/L measured after 48 hrs by PI staining based flow cytometry analysis relative to control. It counts as functional. Particulars: dose 2-6 µmol/L, at 2 to 6 µM.
In experiment [9] the test system is HCT-116. In words: Activation of Hippo signaling pathway in human HCT-116 cells assessed as increase in YAP phosphorylation level at 2 to 6 micromol/L incubated for 48 hrs by Western blotting analysis. It counts as cell-based. The note with it: dose 2-6 µmol/L.
In experiment [10] the test system is HCT-116. The experiment in a line: Inhibition of colony formation in human HCT-116 cells at 2 to 8 micromol/L measured daily for 7 days by crystal violet staining based analysis. It counts as functional, cell-based. The note with it: dose 2-8 µmol/L, time 7.0 day.
Experiment [11] concerns HCT-116. In words: Downregulation of YAP gene transcription in human HCT-116 cells at 6 micromol/L measured after 48 hrs by RT-qPCR analysis. It counts as functional, cell-based. Particulars: dose 6.0 µmol/L.

With `C=CCc1ccc(O)c(-c2ccc3c(c2)C[C@@H](CSc2nnc(-c4cccc(Cl)c4)o2)O3)c1`, the IC50 is > 50 µM in the experiment with KYSE-450, 24.6 µM in the experiment on MGC-803 and 43.4 µM with HCT-116 [1].
For `C=CCc1ccc(O)c(-c2ccc3c(c2)C[C@@H](CSc2nnc(-c4ccc(Cl)cc4Cl)o2)O3)c1`, the IC50 in the experiment with KYSE-450 is > 50 µM; in the experiment on MGC-803 it was 21.5 µM; in the experiment on HCT-116 [1], > 50 µM.
Take `C=CCc1ccc(O)c(-c2ccc3c(c2)C[C@@H](CSc2nnc(-c4ccc(Cl)cc4)o2)O3)c1`: the IC50 with KYSE-450 was > 50 µM; in the experiment on MGC-803, 27 µM; in the experiment on HCT-116 [1], 37.9 µM.
In the same order, the values of `C=CCc1ccc(O)c(-c2ccc3c(c2)C[C@@H](CSc2nnc(-c4ccncc4)o2)O3)c1` are > 50 µM, 40.6 µM and > 50 µM.
Taken in the same sequence, the figures for `C=CCc1ccc(O)c(-c2ccc3c(c2)C[C@@H](CSc2nnc(-c4ccc(C#N)cc4)o2)O3)c1` were > 50 µM, > 50 µM and > 50 µM.
Taken in the same sequence, the figures for `C=CCc1ccc(O)c(-c2ccc3c(c2)C[C@@H](CSc2nnc(-c4ccccc4)o2)O3)c1` were > 50 µM, 27.5 µM and 46.7 µM.
For `O=c1[nH]cc(F)c(=O)[nH]1` [FLUOROURACIL], the IC50 with KYSE-450 worked out at 32.6 µM; with MGC-803 it was 3.88 µM; in the experiment on HCT-116 [1], 9.63 µM.
In the same order, the values of `C=CCc1ccc(O)c(-c2ccc3c(c2)C[C@@H](CSc2nnc(-c4cccc(F)c4)o2)O3)c1` are > 50 µM, 23.8 µM and 29.4 µM.
For `C=CCc1ccc(O)c(-c2ccc3c(c2)C[C@@H](CSc2nnc(-c4ccccc4C)o2)O3)c1`, the values for the 50% inhibitory concentration (IC50) in the experiment with KYSE-450, in the experiment with MGC-803 and with HCT-116 [1] were > 50 µM, 25.7 µM and 47.7 µM, respectively.
As for `C=CCc1ccc(O)c(-c2ccc3c(c2)C[C@@H](CSc2nnc(-c4ccc(F)cc4)o2)O3)c1`, the results for the IC50 in the experiment with KYSE-450, in the experiment with MGC-803 and in the experiment with HCT-116 [1] were > 50 µM, 25.1 µM and 27.4 µM, respectively.
Taken in the same sequence, the figures for `C=CCc1ccc(O)c(-c2ccc3c(c2)C[C@@H](CSc2nnc(-c4cccc(Br)c4)o2)O3)c1` were > 50 µM, 20.4 µM and 57.6 µM.
`C=CCc1ccc(O)c(-c2ccc3c(c2)C[C@@H](CSc2nnc(-c4ccc([N+](=O)[O-])cc4)o2)O3)c1`: the outcome with HCT-116 [2], in the experiment on HCT-116 [3], in the experiment on HCT-116 [4], with HCT-116 [7] and in the experiment with HCT-116 [11] was Active. The 50% inhibitory concentration (IC50) with KYSE-450 was > 50 µM; with MGC-803, > 50 µM; with HCT-116 [1] it was 6.1 µM. The Activity entry with HCT-116 [5] is “Tde”; in the experiment on HCT-116 [6], “Dose-Dependent Effect”; in the experiment with HCT-116 [8], >20%. The result with HCT-116 [9] was inactive. For the same compound, the inhibition entry with HCT-116 [10] was “Active”.
Consider `C=CCc1ccc(O)c(-c2ccc3c(c2)C[C@@H](CSc2nnc(-c4cccnc4)o2)O3)c1`, for which the IC50 in the experiment on KYSE-450 was > 50 µM; in the experiment on MGC-803, 8.63 µM; in the experiment on HCT-116 [1], 12.3 µM.
In the same order, the values of `C=CCc1ccc(O)c(-c2ccc3c(c2)C[C@@H](CSc2nnc(-c4ccc(Br)cc4)o2)O3)c1` are > 50 µM, 44.6 µM and 52.2 µM.
Taken in the same sequence, the figures for `C=CCc1ccc(O)c(-c2ccc3c(c2)C[C@@H](CSc2nnc(-c4cccc(OC)c4)o2)O3)c1` were > 50 µM, > 50 µM and > 50 µM.
Turning to `C=CCc1ccc(O)c(-c2ccc3c(c2)C[C@@H](CSc2nnc(-c4ccc(F)cc4Cl)o2)O3)c1`, the IC50 with KYSE-450 is > 50 µM; in the experiment with MGC-803, 20.4 µM; with HCT-116 [1] it was > 50 µM.
Consider `C=CCc1ccc(O)c(-c2ccc3c(c2)C[C@@H](CSc2nnc(-c4cccc(C)c4)o2)O3)c1`, for which the IC50 was > 50 µM in the experiment with KYSE-450, 20.5 µM in the experiment on MGC-803 and > 50 µM in the experiment on HCT-116 [1].
For the compound `C=CCc1ccc(O)c(-c2ccc3c(c2)C[C@@H](CSc2nnc(-c4ccccc4Br)o2)O3)c1`, the IC50 with KYSE-450, in the experiment with MGC-803 and in the experiment on HCT-116 [1] was > 50 µM each time.
`C=CCc1ccc(O)c(-c2ccc3c(c2)C[C@@H](CSc2nnc(-c4ccccc4F)o2)O3)c1`: the 50% inhibitory concentration (IC50) in the experiment on KYSE-450 worked out at 38.7 µM; in the experiment with MGC-803, 16.2 µM; in the experiment on HCT-116 [1] it was 20.1 µM.
Turning to `C=CCc1ccc(O)c(-c2ccc3c(c2)C[C@@H](CSc2nnc(-c4ccc(OC)cc4)o2)O3)c1`, the IC50 was > 50 µM in the experiment with KYSE-450, 39.7 µM in the experiment on MGC-803 and > 50 µM in the experiment with HCT-116 [1].
Take `C=CCc1ccc(O)c(-c2ccc3c(c2)C[C@@H](CSc2nnc(-c4ccc(C)cc4)o2)O3)c1`: the IC50 with KYSE-450 is > 50 µM; in the experiment on MGC-803, 29.5 µM; with HCT-116 [1], 59.6 µM.
Taken in the same sequence, the figures for `C=CCc1ccc(O)c(-c2ccc(O)c(CC=C)c2)c1` [HONOKIOL] were 32.4 µM, 11.8 µM and 17.2 µM.
`C=CCc1ccc(O)c(-c2ccc3c(c2)C[C@@H](CSc2nnc(-c4ccccc4Cl)o2)O3)c1`: the IC50 with KYSE-450, with MGC-803 and in the experiment with HCT-116 [1] was > 50 µM each time.
In the case of `C=CCc1ccc(O)c(-c2ccc3c(c2)C[C@@H](CSc2nnc(-c4ccccc4OC)o2)O3)c1`, the IC50 with KYSE-450, with MGC-803 and in the experiment with HCT-116 [1] was > 50 µM in each case.
